Source: US20250115591A1, “NOVEL SULFONAMIDE CARBOXAMIDE COMPOUNDS” (INFLAZOME LIMITED, priority 2017, published 2025)
Counter-ions that a name gives are not always drawn. Like-named read-outs stand apart in the source and are kept apart here.

Columns and labels:
NLRP3 [1] = molecular target: T1, NLRP3 (Homo sapiens (Human), UniProt Q96P20); experiment: THP-1 cells pyroptosis assay (LPS + nigericin, resazurin read-out); assay type: cell-based; details: 1 μg/ml LPS, 5 μM nigericin
Procedure, shortened: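 LPS-primed (1 μg/ml) human THP-1 cells in serum-free RPMI were exposed to compound (8-point half-log series, top dose as printed "10M") for 3 h at 37 °C, then to nigericin 5 μM for 1 h. Remaining viability was read by resazurin (100 μM, 1-2 h) fluorescence, and IC50 came from 4-parameter variable-slope regression.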

NLRP3 [2] = molecular target: T1, NLRP3; experiment: Human whole blood IL1β release assay (LPS + nigericin); assay type: cell-based; details: human whole blood, 1 μg/ml LPS, nigericin, IL-1β release; read-out: HWB IC50
Procedure: For systemic delivery, the ability to inhibit NLRP3 when the compounds are present within the bloodstream is of great importance. For this reason, the NLRP3 inhibitory activity of a number of compounds in human whole blood was investigated in accordance with the following protocol.
Human whole blood in Li-heparin tubes was obtained from healthy donors from a volunteer donor panel. • 1. Plate out 80 μl of whole blood containing 1 μg/ml of LPS in 96-well, clear bottom cell culture plate (Corning #3585) • 2. Add 10 μl compound (8 points half-log dilution with 10 μM top dose) or vehicle (DMSO 0.1% FAC) to the appropriate wells • 3. Incubate for 3 hrs at 37° C., 5% CO2 • 4. Add 10 μl nigericin (Sigma #N7143) ([…]) to all wells • 5. Incubate for 1 hr at 37° C., 5% CO2 • 6. At the end of the incubation period, spin plates at 30×g for 5 mins to pellet cells and remove 20 μl of supernatant and add to 96-well v-bottom plates for IL-1β analysis (note: these plates containing the supernatants can be stored at −80° C. to be analysed at a later date) • 7. IL-1β was measured according to the manufacturer protocol (Perkin Elmer-AlphaLisa IL-Kit A[220F-5000) • 8. IC50 data is fitted to a non-linear regression equation (log inhibitor vs response-variable slope 4-parameters)

[3] = PK, intravenous administration; assay type: in vivo, male Sprague Dawley rats; details: male, Sprague Dawley, plasma, rat, intravenous; for AUC: read-out: AUC; for clearance: read-out: Cl; for half-life: read-out: T1/2 (converted); for Vd: read-out: Vdss
Procedure: Pharmacokinetic parameters were determined in male Sprague Dawley rats (Charles River, UK, 250-300 g; or Vital River Laboratory Animal Technology Co Ltd, Beijing, China, 7-9 weeks old). Animals were individually housed during the study and maintained under a 12 h light/dark cycle. Animals had free access to food and water except that orally dosed animals were food deprived overnight prior to the study. For intravenous administration, compounds were formulated as a solution in water or DMSO:PBS [10:90] in 2 mL/kg dosing volume and administered via tail vein. For oral administration, compounds were formulated as a solution in water or DMSO:water [10:90] in 5 mL/kg dosing volume and administered orally. Serial blood samples (about 120-300 μL) were taken from each animal at each of 8 time-points post dose (0.083, 0.25, 0.5, 1, 2, 4, 8 and 24 h). Samples were held on ice for no longer than 30 minutes before centrifugation (10,000 rpm (8,385 g) for 3 minutes; or 5,696 rpm (3,000 g) for 15 minutes) for plasma generation. Plasma was frozen on dry ice prior to bioanalysis. PK parameters were generated from LC-MS/MS data using Dotmatics or Phoenix WinNonlin 6.3 software.

T1 sequence (Q96P20 whole entry): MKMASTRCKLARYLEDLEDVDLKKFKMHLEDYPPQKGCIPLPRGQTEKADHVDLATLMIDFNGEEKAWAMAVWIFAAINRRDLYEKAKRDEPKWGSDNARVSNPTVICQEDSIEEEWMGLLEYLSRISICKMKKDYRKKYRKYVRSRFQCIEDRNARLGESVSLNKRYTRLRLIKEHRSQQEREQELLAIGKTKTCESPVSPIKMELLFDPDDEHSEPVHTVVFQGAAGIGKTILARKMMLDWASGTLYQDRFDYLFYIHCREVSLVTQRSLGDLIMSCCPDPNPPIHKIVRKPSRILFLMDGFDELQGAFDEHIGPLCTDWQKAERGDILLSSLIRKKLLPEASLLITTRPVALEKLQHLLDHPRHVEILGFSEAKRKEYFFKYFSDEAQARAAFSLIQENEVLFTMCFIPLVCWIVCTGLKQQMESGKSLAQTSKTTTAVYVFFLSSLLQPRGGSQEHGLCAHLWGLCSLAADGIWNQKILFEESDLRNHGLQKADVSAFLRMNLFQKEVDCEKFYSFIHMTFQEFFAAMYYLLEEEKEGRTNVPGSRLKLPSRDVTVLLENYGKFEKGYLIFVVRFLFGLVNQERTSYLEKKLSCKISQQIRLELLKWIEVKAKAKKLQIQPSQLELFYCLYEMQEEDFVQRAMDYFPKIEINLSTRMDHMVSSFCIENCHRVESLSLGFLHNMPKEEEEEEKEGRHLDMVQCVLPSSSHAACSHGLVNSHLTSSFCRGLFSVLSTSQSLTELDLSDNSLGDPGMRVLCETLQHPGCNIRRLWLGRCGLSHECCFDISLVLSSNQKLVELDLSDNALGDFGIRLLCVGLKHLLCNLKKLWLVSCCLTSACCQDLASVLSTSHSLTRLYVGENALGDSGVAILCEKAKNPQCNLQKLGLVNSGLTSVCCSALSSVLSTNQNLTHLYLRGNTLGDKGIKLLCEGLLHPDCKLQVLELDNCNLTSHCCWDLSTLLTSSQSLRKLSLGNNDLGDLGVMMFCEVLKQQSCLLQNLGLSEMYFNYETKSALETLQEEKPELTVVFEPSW

IC50 (NLRP3 [1]) | IC50 (NLRP3 [2]) | SMILES | other results
1000 to 10000 nM | 1000 to 10000 nM | CN1CCC(S(=O)(=O)NC(=O)Nc2c3c(cc4c2CCC4)CCC3)CC1 [Example 1, N-((1,2,3,5,6,7-Hexahydro-s-indacen-4-yl)carbamoyl)-1-methylpiperidine-4-sulfonamide, potassium salt] | AUC ([3]; dose 1 mg/kg): 1950 ng·h/mL; clearance ([3]; dose 1 mg/kg): 8.5 mL/min/kg; half-life ([3]; dose 1 mg/kg): 1.2 h; Vd ([3]; dose 1 mg/kg): 0.58 L/kg
< 1000 nM | < 1000 nM | CC(C)N1CCCC(S(=O)(=O)NC(=O)Nc2c3c(cc4c2CCC4)CCC3)C1 (stereo not shown) [Example 31, N-((1,2,3,5,6,7-Hexahydro-s-indacen-4-yl)carbamoyl)-1-iso-propyl-piperidine-3-sulfonamide, potassium salt] | AUC ([3]; dose 1 mg/kg): 2750 ng·h/mL; clearance ([3]; dose 1 mg/kg): 6.1 mL/min/kg; half-life ([3]; dose 1 mg/kg): 4.5 h; Vd ([3]; dose 1 mg/kg): 0.47 L/kg
< 1000 nM | < 1000 nM | COc1cc(-c2cc(F)cc(C(C)C)c2NC(=O)NS(=O)(=O)C2CN(C(C)C)C2)ccn1 [Example 158, N-((4-Fluoro-2-isopropyl-6-(2-methoxypyridin-4-yl)phenyl)carbamoyl)-1-isopropylazetidine-3-sulfonamide] | 
< 1000 nM | < 1000 nM | COc1cc(-c2ccc3c(c2NC(=O)NS(=O)(=O)C2CN(C(C)C)C2)CCC3)ccn1 [Example 159, 1-Isopropyl-N-((5-(2-methoxypyridin-4-yl)-2,3-dihydro-1H-inden-4-yl)carbamoyl)azetidine-3-sulfonamide] | 
< 1000 nM | < 1000 nM | COc1cc(-c2cc(F)cc(C(C)C)c2NC(=O)NS(=O)(=O)C2CN(C3CCC3)C2)ccn1 [Example 162, 1-Cyclobutyl-N-((4-fluoro-2-isopropyl-6-(2-methoxypyridin-4-yl)phenyl)carbamoyl)azetidine-3-sulfonamide] | 
< 1000 nM | < 1000 nM | COc1cc(-c2ccc3c(c2NC(=O)NS(=O)(=O)C2CN(C4CCC4)C2)CCC3)ccn1 [Example 163, 1-Cyclobutyl-N-((5-(2-methoxypyridin-4-yl)-2,3-dihydro-1H-inden-4-yl)carbamoyl)azetidine-3-sulfonamide] | 
< 1000 nM | < 1000 nM | CCN1CC(S(=O)(=O)NC(=O)Nc2c(-c3ccnc(OC)c3)ccc3c2CCC3)C1 [Example 167, 1-Ethyl-N-((5-(2-methoxypyridin-4-yl)-2,3-dihydro-1H-inden-4-yl)carbamoyl)azetidine-3-sulfonamide] | 
1000 to 10000 nM | 1000 to 10000 nM | COc1cc(-c2ccc3c(c2NC(=O)NS(=O)(=O)C2CN(Cc4cccnc4)C2)CCC3)ccn1 [Example 170, N-((5-(2-Methoxypyridin-4-yl)-2,3-dihydro-1H-inden-4-yl)carbamoyl)-1-(pyridin-3-ylmethyl)azetidine-3-sulfonamide] | 
< 1000 nM | < 1000 nM | CC(C)c1cc(F)cc(-c2ccnc(C#N)c2)c1NC(=O)NS(=O)(=O)c1ccc(=O)n(C(C)C)c1 [Example 172, N-((2-(2-cyanopyridin-4-yl)-4-fluoro-6-isopropylphenyl)carbamoyl)-1-isopropyl-6-oxo-1,6-dihydropyridine-3-sulfonamide] | 
< 1000 nM | < 1000 nM | COc1cc(-c2cc(F)cc(C(C)C)c2NC(=O)NS(=O)(=O)c2ccc(=O)n(C(C)C)c2)ccn1 [Example 173, N-((4-Fluoro-2-isopropyl-6-(2-methoxypyridin-4-yl)phenyl)carbamoyl)-1-isopropyl-6-oxo-1,6-dihydropyridine-3-sulfonamide] | 
< 1000 nM | < 1000 nM | CC(C)n1cc(S(=O)(=O)NC(=O)Nc2c3c(cc4c2CCC4)CCC3)ncc1=O [Example 181, N-((1,2,3,5,6,7-Hexahydro-s-indacen-4-yl)carbamoyl)-4-isopropyl-5-oxo-4,5-dihydropyrazine-2-sulfonamide, sodium salt] | 
< 1000 nM | 1000 to 10000 nM | CC(C)n1cc(S(=O)(=O)NC(=O)Nc2c3c(cc4c2CCC4)CCC3)ccc1=O [Example 185, N-((1,2,3,5,6,7-Hexahydro-s-indacen-4-yl)carbamoyl)-1-isopropyl-6-oxo-1,6-dihydropyridine-3-sulfonamide, sodium salt] | 

SMILES | IC50 (NLRP3 [1]) | IC50 (NLRP3 [2]) | other results
CCN1CCCC(S(=O)(=O)NC(=O)Nc2c3c(cc4c2CCC4)CCC3)C1 (stereo not shown) [Example 9, 1-Ethyl-N-((1,2,3,5,6,7-hexahydro-s-indacen-4-yl)carbamoyl)-piperidine-3-sulfonamide, potassium salt] | < 1000 nM | < 1000 nM | AUC ([3]; dose 1 mg/kg): 2670 ng·h/mL; clearance ([3]; dose 1 mg/kg): 6.5 mL/min/kg; half-life ([3]; dose 1 mg/kg): 3.9 h; Vd ([3]; dose 1 mg/kg): 0.63 L/kg
CC(C)N1CCC(S(=O)(=O)NC(=O)Nc2c3c(cc4c2CCC4)CCC3)C1 (stereo not shown) [Example 41, N-((1,2,3,5,6,7-Hexahydro-s-indacen-4-yl)carbamoyl)-1-iso-propylpyrrolidine-3-sulfonamide, potassium salt] | < 1000 nM | < 1000 nM | AUC ([3]; dose 1 mg/kg): 1850 ng·h/mL; clearance ([3]; dose 1 mg/kg): 9.1 mL/min/kg; half-life ([3]; dose 1 mg/kg): 2.9 h; Vd ([3]; dose 1 mg/kg): 0.78 L/kg
CCCN1CC(S(=O)(=O)NC(=O)Nc2c3c(cc4c2CCC4)CCC3)C1 [Example 76, N-((1,2,3,5,6,7-Hexahydro-s-indacen-4-yl)carbamoyl)-1-propylazetidine-3-sulfonamide, potassium salt] | < 1000 nM | < 1000 nM | AUC ([3]; dose 1 mg/kg): 2650 ng·h/mL; clearance ([3]; dose 1 mg/kg): 6.3 mL/min/kg; half-life ([3]; dose 1 mg/kg): 1 h; Vd ([3]; dose 1 mg/kg): 0.25 L/kg
O=C(Nc1c2c(cc3c1CCC3)CCC2)NS(=O)(=O)C1CN(CC2CC2)C1 [Example 94, 1-(Cyclopropylmethyl)-N-((1,2,3,5,6,7-hexahydro-s-indacen-4-yl)carbamoyl)azetidine-3-sulfonamide, potassium salt] | < 1000 nM | < 1000 nM | AUC ([3]; dose 2.09 mg/kg): 1410 ng·h/mL; clearance ([3]; dose 2.09 mg/kg): 25.2 mL/min/kg; half-life ([3]; dose 2.09 mg/kg): 1.1 h; Vd ([3]; dose 2.09 mg/kg): 1.62 L/kg
O=C(Nc1c2c(cc3c1CCC3)CCC2)NS(=O)(=O)C1CN(C2CSC2)C1 [Example 109, N-((1,2,3,5,6,7-Hexahydro-s-indacen-4-yl)carbamoyl)-1-(thietan-3-yl)azetidine-3-sulfonamide, potassium salt] | < 1000 nM | < 1000 nM | AUC ([3]; dose 1 mg/kg): 1730 ng·h/mL; clearance ([3]; dose 1 mg/kg): 9.6 mL/min/kg; half-life ([3]; dose 1 mg/kg): 1.3 h; Vd ([3]; dose 1 mg/kg): 0.64 L/kg
Cn1ccc(CN2CC(S(=O)(=O)NC(=O)Nc3c4c(cc5c3CCC5)CCC4)C2)cc1=O [Example 141, N-((1,2,3,5,6,7-Hexahydro-s-indacen-4-yl)carbamoyl)-1-((1-methyl-2-oxo-1,2-dihydropyridin-4-yl)methyl)azetidine-3-sulfonamide, potassium salt] | < 1000 nM | 1000 to 10000 nM | 
O=C(Nc1c2c(cc3c1CCC3)CCC2)NS(=O)(=O)C1CN(CC2CCOC2)C1 (stereo not shown) [Example 144, N-((1,2,3,5,6,7-Hexahydro-s-indacen-4-yl)carbamoyl)-1-((tetrahydrofuran-3-yl)methyl)azetidine-3-sulfonamide, potassium salt] | < 1000 nM | 1000 to 10000 nM | 
O=C(Nc1c2c(cc3c1CCC3)CCC2)NS(=O)(=O)C1CN(CC2CCCO2)C1 (stereo not shown) [Example 145, N-((1,2,3,5,6,7-Hexahydro-s-indacen-4-yl)carbamoyl)-1-((tetrahydrofuran-2-yl)methyl)azetidine-3-sulfonamide, potassium salt] | < 1000 nM | 1000 to 10000 nM | 
O=C(Nc1c2c(cc3c1CCC3)CCC2)NS(=O)(=O)C1CN(CCO)C1 [Example 152, 1-(2-Hydroxyethyl)-N-((1,2,3,5,6,7-hexahydro-s-indacen-4-yl)carbamoyl)azetidine-3-sulfonamide, potassium salt] | < 1000 nM | < 1000 nM | 
